The numbers were not newly measured in patent publication EP0438554B1, “NITROGENOUS AMBRUTICINES, PROCESS FOR OBTAINING THEM AND THEIR USE” (Gesellschaft für Biotechnologische Forschung mbH (GBF), priority 1989, dated 1991), which cites them from elsewhere.

The conditions of this data set: in vitro; S.M. Ringel et al., J. of Antibiotics 30, 371 (1977).

With `CC[C@H]1O[C@@H](/C(C)=C/[C@H](C)/C=C/[C@H]2[C@@H](C)[C@@H]2/C=C/[C@@H]2O[C@H](CC(=O)O)C[C@H](O)[C@H]2O)CC=C1C` [Ambruticin], the “antibakterielle Wirkung” value is on record as “schwach antibakterielle”.
